Experimental data published in the NIST ThermoML archive (doi:10.1016/j.tca.2017.12.006).

Conditions: Liquid, Transpiration method

CCOC(=O)CCC(C)=O [ethyl levulinate]
Conditions | vapor or sublimation pressure [kPa]
293.5 K | 0.0169
298.4 K | 0.0253
303.3 K | 0.0375
308.3 K | 0.0542
313.3 K | 0.0795
318.3 K | 0.1129
323.3 K | 0.1613
328.2 K | 0.2312
333.1 K | 0.3106
338.1 K | 0.415
343.1 K | 0.553
348.8 K | 0.758

COC(=O)CCC(C)=O [methyl levulinate]
Conditions | vapor or sublimation pressure [kPa]
293.5 K | 0.0302
298.5 K | 0.0442
303.3 K | 0.0638
308.5 K | 0.0929
313.4 K | 0.1359
318.3 K | 0.1837
323.2 K | 0.2626
328.2 K | 0.3572
333.2 K | 0.501
338.2 K | 0.659
343.1 K | 0.878
348.2 K | 1.142
353.2 K | 1.473

CCCCOC(=O)CCC(C)=O [butyl levulinate]
Conditions | vapor or sublimation pressure [kPa]
298.2 K | 0.00393
303.2 K | 0.00611
308.1 K | 0.00895
313 K | 0.01421
318 K | 0.01999
323 K | 0.03006
327.9 K | 0.0443
332.8 K | 0.0632
337.8 K | 0.0939
342.8 K | 0.1289
347.8 K | 0.181
